From ChEMBL document CHEMBL6096699, “Tröger's Base as a Potential Bridge to Type-I Photosensitizers: Mechanism and Antitumor Applications” (J Med Chem, 2025)
Each block holds one molecule with its values, some of them ahead of it. Calls of active or inactive are those of the source. The calls are words filed in the database; no cut-off is given here.

Legend:
[1] = Induction of type-1 ROS generation in tetrahydrofuran assessed as fold increase in DHR123 fluorescence intensity at 0.5 uM followed by LED white light irradiation at 1.8 mWcm/2 for 300 sec by DCFH staining based analysis; format: functional
[2] = Photophysical property of the compound assessed as fluorescence quantum yield; format: physicochemical
[3] = Induction of type-1 ROS generation in tetrahydrofuran at 0.5 uM followed by LED white light irradiation at 1.8 mWcm/2 for 300 sec by DCFH staining based analysis; format: functional
[4] = Dark toxicity in human HBE cells assessed as cell viability incubated for 24 hrs in dark by MTT assay; format: cell-based
[5] = Induction of type-1 ROS generation in tetrahydrofuran assessed as increase in singlet oxygen production by measuring ABDA absorption peak at 0.5 uM followed by LED white light irradiation at 1.8 mWcm/2 for 300 sec by DCFH staining based analysis; format: functional
A549 [6] = experiment: Inhibition of cell migration in human A549 cells assessed as appearance of loose cells at 0.75 uM preincubated for 12 hrs followed by incubation under dark condition and measured after 48 hrs by wound healing assay; format: functional, cell-based; details: time 60.0 hrs
A549 [7] = experiment: Inhibition of cell migration in human A549 cells at 0.75 uM preincubated for 12 hrs followed by LED light irradiation 1.8 mW cm/2 for 2 hrs and measured after 48 hrs by wound healing assay; format: functional, cell-based; details: time 62.0 hrs
A549 [8] = experiment: Inhibition of cell migration in human A549 cells assessed as appearance of blurred cells at 0.75 uM preincubated for 12 hrs followed by incubation under dark condition and measured after 48 hrs by wound healing assay; format: functional, cell-based; details: time 60.0 hrs
[9] = Induction of type-1 ROS generation in methanol assessed as generation of OH at 0.5 uM followed by Xe lamp irradiation for 5 mins by DCFH staining based analysis; format: functional
[10] = Induction of type-1 ROS generation in methanol assessed as generation of O2 at 0.5 uM followed by Xe lamp irradiation for 5 mins by DCFH staining based analysis; format: functional
A549 [11] = experiment: Inhibition of cell migration in human A549 cells at 0.75 uM preincubated for 12 hrs followed by incubation under dark condition and measured after 48 hrs by wound healing assay; format: functional, cell-based; details: time 60.0 hrs
A549 [12] = experiment: Inhibition of cell migration in human A549 cells assessed as appearance of loose cells at 0.75 uM preincubated for 12 hrs followed by LED light irradiation 1.8 mW cm/2 for 2 hrs and measured after 48 hrs by wound healing assay; format: functional, cell-based; details: time 62.0 hrs
[13] = Developmental toxicity in wild type AB zebrafish assessed as effect on morphological abnormalities at 1.57 to 50 uM incubated for 72 hrs followed by LED light irradiation at 1.8 mW cm/2; design: species or system Danio rerio; details: in vivo, dose 1.57-50 µM
MCF7 = experiment: Phototoxicity against human MCF7 cells assessed as reduction in cell proliferation at 0.156 to 10 uM irradiated with LED light at 1.8 mWcm/2 for 2 hrs and measured after 24 hrs under normoxia condition by MTT assay; format: functional, cell-based; details: dose 0.156-10 µM, time 26.0 hrs
MDA-MB-231 = experiment: Phototoxicity against human MDA-MB-231 cells assessed as reduction in cell proliferation at 0.156 to 10 uM irradiated with LED light at 1.8 mWcm/2 for 2 hrs and measured after 24 hrs under normoxia condition by MTT assay; format: functional, cell-based; details: dose 0.156-10 µM, time 26.0 hrs
A549 [14] = experiment: Phototoxicity against human A549 cells assessed as reduction in cell proliferation at 0.156 to 10 uM irradiated with LED light at 1.8 mWcm/2 for 2 hrs and measured after 24 hrs under normoxia condition by MTT assay; format: functional, cell-based; details: dose 0.156-10 µM, time 26.0 hrs
HepG2 = experiment: Phototoxicity against human HepG2 cells assessed as reduction in cell proliferation at 0.156 to 10 uM irradiated with LED light at 1.8 mWcm/2 for 2 hrs and measured after 24 hrs under normoxia condition by MTT assay; format: functional, cell-based; details: dose 0.156-10 µM, time 26.0 hrs
A549 [15] = experiment: Induction of intracellular ROS generation in human A549 cells by measuring red fluorescence at 0.4 to 1.2 uM incubated for 24 hrs under dark condition by DHE based fluorescence microscopy analysis; format: functional, cell-based; details: dose 0.4-1.2 µM
A549 [16] = experiment: Inhibition of cell migration in human A549 cells assessed as appearance of blurred cells at 0.75 uM preincubated for 12 hrs followed by LED light irradiation 1.8 mW cm/2 for 2 hrs and measured after 48 hrs by wound healing assay; format: functional, cell-based; details: time 62.0 hrs
[17] = Developmental toxicity in wild type AB zebrafish assessed as effect on morphological abnormalities at 1.57 to 50 uM incubated for 72 hrs under dark condition; design: species or system Danio rerio; details: in vivo, dose 1.57-50 µM
A549 [18] = experiment: Induction of intracellular ROS generation in human A549 cells by measuring red fluorescence at 0.4 to 1.2 uM incubated for 24 hrs in presence of LED light irradiation at 1.8 mW cm/2 by DHE based fluorescence microscopy analysis; format: functional, cell-based; details: dose 0.4-1.2 µM

Fluorescence quantum yield [2]: 0.16
SMILES: CCN(CC)c1ccc2cc(C(=O)/C=C/c3cc4c(cc3OC)N3Cc5cc(Br)c(OC)cc5N(C4)C3)c(=O)oc2c1
fold change (FC) [1]: 17.4 | Activity [3]: Active | Activity [4]: Toxic | Activity [5]: inactive

Fluorescence quantum yield [2]: 0.18
SMILES: CCN(CC)c1ccc2cc(C(=O)/C=C/c3ccc4c(c3)CN3CN4Cc4cc(C=O)ccc43)c(=O)oc2c1
inhibition (A549 [6]): Active | inhibition (A549 [7]): Active | inhibition (A549 [8]): Active | Activity [9]: Active | Activity [10]: Active | fold change (FC) [1]: 24.1 | inhibition (A549 [11]): Active | inhibition (A549 [12]): Active | Activity [13]: Non-toxic | Activity (MCF7): Active | Activity (MDA-MB-231): Active | Activity [3]: Active | Activity (A549 [14]): Active | Activity [4]: Toxic | Activity (HepG2): Active | Activity (A549 [15]): inactive | inhibition (A549 [16]): Active | Activity [17]: Non-toxic | Activity (A549 [18]): Active
